Results: US8853276B2, “Guanidine derivatives in cinnamic series” (Produits Chimiques Auxiliaires et de Synthese, priority 2010, dated 2014)

Test system: fibrillin-1
Test: Anti-glycation study on skin explants: fibrillin-1 immunolabeling with image analysis
Format: cell-based, human
Conditions: for Fibrillin-1 (% of surface area under the dermo-epidermal junction), Mean: topical 2 mg per explant on D0, D3, D5, D7, aminoguanidine at 0.15%, compound 29 at 1%
Method: The anti-aging properties of a derivative according to the invention were evaluated by performing a comparative study of the anti-glycation activity of several compounds.
From an arm of a person, 21 explants (about 10 mm in diameter) were prepared and placed under survival conditions in BEM specific medium (BIO-EC's Explants Medium).
The explants were divided into seven batches of three explants:
Methylglyoxal was incorporated into the survival medium on D3, D5 and D7.
Compound 29 and the reference, aminoguanidine, were applied topically at a rate of 2 mg per explant on D0, D3, D5 and D7.
The controls (batches T0 and T) received no treatment.
On D0, the three explants of batch T0 were sampled and divided into two. One half was fixed with buffered formaldehyde and the other half was frozen at −80° C. On D9, three explants from each batch were sampled and treated in the same manner.
After 24 hours of fixing in the buffered formaldehyde, the samples were dehydrated and impregnated with paraffin using a Leica 1020 dehydration robot. They were embedded using a Leica EG 1160 coating station. 5 μm slices were produced using a Minot Leica RM 2125 microtome and bonded to Superfrost® histological glass slides.
The nuclei were stained with propidium iodide. The labeling was quantified by image analysis measurements with the Q-WIN Leica system.

[1] = D9 with methylglyoxal (in survival medium D3, D5, D7)
[2] = D9 with methylglyoxal, relative to the control batch T without methylglyoxal

| SMILES | reduction of the methylglyoxal-induced decrease in the expression of fibrillin-1 (D9, treatment in the presence of methylglyoxal) | expression of fibrillin-1 (labeling, observation) (D9 in the presence of methylglyoxal, compared with control batch T MG) | Fibrillin-1 (% of surface area under the dermo-epidermal junction), Mean [1] | decrease in the percentage of surface area occupied by fibrillin-1 under the dermo-epidermal junction [2] | Fibrillin-1 (% of surface area under the dermo-epidermal junction), Mean (D9 without methylglyoxal) | increase in the percentage of surface area occupied by fibrillin-1 under the dermo-epidermal junction [2] |
| --- | --- | --- | --- | --- | --- | --- |
| N=C(N)NN [aminoguanidine, Aminoguanidine] | 49% | very sharp and greater than that observed on the control batch T MG with methylglyoxal | 21.0% | 12% | 28.3% | – |
| COc1cc(/C=C/C(=O)NNC(=N)N)ccc1O [Compound 29, imino{2-[(2E)-3-(4-hydroxy-3-methoxyphenyl)prop-2-enoyl]hydrazino}methanaminium nitrate] | – | – | 27.7% | – | 21.53% | 17% |
| CC(=O)C=O [methylglyoxal, Methylglyoxal] | – | – | – | 23% | – | – |
